Laboratory results: patent publication US20250263799A1, “METHODS OF TREATING CANCER USING REPLICATION STRESS MODULATORS” (The Institute of Cancer Research: Royal Cancer Hospital, priority 2022, published 2025)

How the values were obtained:
[1] = system: RPE1 cells engineered with dox inducible expression of HORMAD1; test: Colony formation (surviving fraction) with ART558 in RPE1 cells with dox inducible expression of HORMAD1; assay type: cell-based, human
Description: (§1) RPE1 (FIGS. 16-17, A) or SUM159 (FIGS. 16-17, B) cells engineered with dox inducible expression of HORMAD1 were seeded at colony forming density in the presence or absence of dox and treated with the indicated doses of ART558. Colonies were counted and surviving fractions for each condition were calculated.

[2] = system: SUM159 cells engineered with dox inducible expression of HORMAD1; test: Colony formation (surviving fraction) with ART558 in SUM159 cells with dox inducible expression of HORMAD1; assay type: cell-based, human
Description: as §1

[3] = system: Breast cancer cell lines characterized as HORMAD1 negative and positive; conditions: data from depmap.org, FIG. 18C; cited from earlier work
[4] = system: SUM159 cells with dox-inducible expression of HORMAD1; test: LY2606368 sensitivity in SUM159 cells with dox-inducible HORMAD1 (FIG. 18D); assay type: cell-based, human; conditions: +DOX vs -DOX
[5] = system: HORMAD1 negative RPE-1 cells engineered to have doxycycline inducible expression of HORMAD1; test: Novobiocin sensitivity, 10 days, cell viability by cell titre glow; assay type: cell-based, human
Description: HORMAD1 negative RPE-1 cells engineered to have doxycycline inducible expression of HORMAD1 were then assessed for their sensitivity to the POLQ inhibitor Novobiocin. Cells were treated with the indicated doses of Novobiocin for 10 days and cell viability assessed by cell titre glow.

[6] = system: SUM149 cells with dox-inducible expression of HORMAD1; test: CHK1 inhibitor sensitivity, colony forming density, Cell Titer Glow, surviving fraction; assay type: cell-based, human; conditions: FIGS. 18A, B and D

## Cc1cccc(N(C)C(=O)[C@@H]2[C@H](O)CCN2c2nc(C)cc(C(F)(F)F)c2C#N)c1 [ART558]
[1]; RPE1, dox-induced expression of HORMAD1, FIG. 16A
  sensitivity to inhibitor, +DOX vs -DOX: increases sensitivity
[1]; RPE1 cells expressing HORMAD1 (+DOX), 5, 10, and 20 μM ART558
  cell viability (surviving fraction of colonies): significant reduction in cell viability
[1]; RPE1 cells in the absence of the inducer (-DOX), below 20 μM ART558
  cell viability (surviving fraction of colonies): no reduction in cell viability
[2]; SUM159, +DOX vs uninduced
  sensitivity to inhibitor, HORMAD1 expressing vs uninduced controls: significantly increased sensitivity
[2]; SUM159 cells expressing HORMAD1 (+DOX), 10 and 20 μM ART558
  cell viability (surviving fraction of colonies): significant reduction in cell viability

## COc1cccc(OCCCN)c1-c1cc(Nc2cnc(C#N)cn2)n[nH]1 [LY2606368]
[3]
  mean area under the curve (AUC), HORMAD1 positive vs HORMAD1 negative group: lower mean AUC
[4]
  sensitivity to CHK1 inhibitor upon induction of HORMAD1 expression: increased sensitivity

## CO[C@@H]1[C@@H](OC(N)=O)[C@@H](O)[C@H](Oc2ccc3c(O)c(NC(=O)c4ccc(O)c(CC=C(C)C)c4)c(=O)oc3c2C)OC1(C)C [Novobiocin]
[5]; +DOX vs uninduced, difference dose-dependent
  sensitivity to inhibitor, HORMAD1 expressing vs uninduced controls: significantly increased sensitivity
[5]; Novobiocin at concentrations above 50 μM, 10 days
  colony survival: significant and dose-dependent reduction in colony survival

## Cn1cc(-c2[nH]c3cc(NC(=O)[C@H](N)C4CCCCC4)cc4c3c2C=NNC4=O)cn1 [PF47736]
[6]
  sensitivity to CHK1 inhibitor, HORMAD1 expressing vs uninduced controls: significantly increased sensitivity

## C[C@H](CN(C)C)Oc1nc(Nc2cc3cccc(Cl)c3cn2)cnc1C#N [SAR020106]
[6]
  sensitivity to CHK1 inhibitor, HORMAD1 expressing vs uninduced controls: significantly increased sensitivity
